Test [1] concerns the target T1, Replicase polyprotein 1ab (Severe acute respiratory syndrome coronavirus 2, UniProt P0DTD1). Briefly: Inhibition of SARS-CoV-2 3CL protease by luciferase reporter assay. For orientation: In a reporter assay the amount or activity of a reporter protein is the signal.
Test [2] is described as follows: Inhibition of recombinant SARS-CoV-2 Wuhan-Hu-1 main protease extracted from Escherichia coli cells using Dabcyl-KTSAVLQSGFRKME-Edans as substrate incubated for 60 mins by FRET assay. Details: species or system Severe acute respiratory syndrome coronavirus 2.
Test [3] in a line: Binding affinity to SARS-CoV-1 3CL protease assessed as inhibition constant. Details: species or system Severe acute respiratory syndrome-related coronavirus.
Test [4] addresses T1, Replicase polyprotein 1ab. Briefly: Binding affinity to C-terminal GST-tagged full-length recombinant SARS-CoV-2 3CLpro extracted from Escherichia coli BL21(DE3) assessed as inhibition constant by ITC analysis. (Isothermal titration calorimetry measures the heat released or taken up as one component is titrated into another.)
The nature of test [5]: Binding affinity to SARS-CoV MPro assessed as inhibition constant by FRET assay.
In test [6] the test system is SARS-CoV-2. As to the kind of experiment: Antiviral activity against SARS-CoV-2 infected in African green monkey Vero cells assessed as reduction in viral replication incubated for 72 hrs by RT-qPCR analysis. In kind it is functional, organism-based. The conditions noted are these: Severe acute respiratory syndrome coronavirus 2, Vero. For orientation: Real-time PCR tracks product formation cycle by cycle.

Test [7] relates to SARS-CoV-2. Briefly: Antiviral activity against SARS-CoV-2 infected in african green monkey Vero E6 cells assessed as reduction in viral replication measured after 72 hrs by crystal violet staining based assay. The following applies: Severe acute respiratory syndrome coronavirus 2, Vero C1008, 72 h. It is filed as functional, organism-based.
A short description of test [8]: Inhibition of SARS-CoV-2 MPro using Dabcyl-KTSAVLQSGFRKME-Edans as substrate preincubated for 15 mins followed by substrate addition measured after 60 mins by FRET assay. Also on record: species or system Severe acute respiratory syndrome coronavirus 2.
A short description of test [9]: Inhibition of C-terminal GST-tagged SARS-CoV-2 Main protease extracted from Escherichia coli BL21 (DE3) measured for 60 mins by FRET assay. Details: species or system Severe acute respiratory syndrome coronavirus 2.
The nature of test [10]: Inhibition of SARS-CoV-2 MPro using Dabcyl-KTSAVLQSGFRKME-Edans as substrate preincubated for 30 mins followed by substrate addition and measured after 60 mins by fluorescence based assay. Also on record: species or system Severe acute respiratory syndrome coronavirus 2.
In test [11] the test system is SARS-CoV-2. Briefly: Antiviral activity against SARS-CoV-2 infected in African green monkey Vero E6 cells assessed as reduction in viral replication incubated for 72 hrs by RT-qPCR analysis. The conditions noted are these: Severe acute respiratory syndrome coronavirus 2, Vero C1008, 72 h. It is filed as functional, organism-based.
Test [12] relates to SARS-CoV-2. As to the kind of experiment: Antiviral activity against SARS-CoV-2 infected in african green monkey Vero E6 cells assessed as inhibition of viral replication incubated for 3 days by crystal violet staining based assay. In kind it is functional, organism-based. The conditions noted are these: Severe acute respiratory syndrome coronavirus 2, Vero C1008, 72 h.
A short description of test [13]: Inhibition of MERS-CoV Main protease using Boc-Abu-Tle-Leu-Gln-AMC as substrate pre-incubated for 15 mins followed by substrate addition and measured after 30 mins by FRET analysis. Also on record: species or system Middle East respiratory syndrome-related coronavirus.
Test [14] concerns the target T1, Replicase polyprotein 1ab. As to the kind of experiment: Inhibition of SARS-CoV-2 3CL protease by FRET assay.
A short description of test [15]: Binding affinity to SARS-CoV-2 MPro transfected in Escherichia coli BL21 (DE3) cells assessed as inhibition constant by FRET assay. Details: species or system Severe acute respiratory syndrome coronavirus 2.
A short description of test [16]: Inhibition of SARS-CoV-2 Main protease. Also on record: species or system Severe acute respiratory syndrome coronavirus 2.
Test [17] relates to SARS-CoV-2. As to the kind of experiment: Antiviral activity against SARS-CoV-2 infected in Vero E6 cells assessed as inhibition of viral replication. In kind it is functional, organism-based. The conditions noted are these: Severe acute respiratory syndrome coronavirus 2, Vero C1008.
Test [18] can be described thus: Inhibition of SARS-Cov-2 Main protease by FRET assay. Details: species or system Severe acute respiratory syndrome coronavirus 2.
Test [19] in a line: Binding affinity to SARS-CoV-1 Main protease assessed as inhibition constant. Also on record: species or system Severe acute respiratory syndrome-related coronavirus.
A short description of test [20]: Inhibition of MERS-CoV Main protease extracted from Escherichia coli BL21 (DE3) incubated for 30 mins by fluorescence based analysis. Also on record: species or system Middle East respiratory syndrome-related coronavirus.
Test [21] is described as follows: Inhibition of SARS-CoV-2 Main protease extracted from Escherichia coli BL21 (DE3) using MCA-Ala-Val-Leu-Gln-Ser-Gly-Phe-Arg-Lys(Dnp)-LsyNH2-trifluoroacetate salt as substrate pre-incubated for 30 mins followed by substrate addition and measured after 1 hrs by FRET assay. Details: species or system Severe acute respiratory syndrome coronavirus 2.
For test [22], the system named is SARS-CoV-2. As to the kind of experiment: Antiviral activity against SARS-CoV-2 infected in African green Monkey Vero E6 cells assessed as reduction in viral replication measured after 48 hrs by qRT-PCR analysis. It is filed as functional, organism-based. The conditions noted are these: Severe acute respiratory syndrome coronavirus 2, Vero C1008, 48 h.
Test [23] is described as follows: Binding affinity to SARS-CoV-2 Main protease assessed as inhibition constant. Details: species or system Severe acute respiratory syndrome coronavirus 2.
Test [24] relates to SARS-CoV-2. As to the kind of experiment: Antiviral activity against SARS-CoV-2 infected in Vero E6 cells assessed as reduction in viral replication. The following applies: Severe acute respiratory syndrome coronavirus 2, Vero C1008. It is filed as functional, organism-based.
The subject of test [25] is SARS-CoV-2. As to the kind of experiment: Antiviral activity against SARS-CoV-2 infected in African green monkey Vero cells assessed as reduction in virus-induced cytopathic effect incubated for 3 days by microscopic analysis. In kind it is functional, organism-based. The following applies: Severe acute respiratory syndrome coronavirus 2, Vero, 72 h.

Where a SMILES comes first, the peptide text is derived from it. The star is where a group is joined. Octanoyl = CCCCCCCC(=O)*; Boc = CC(C)(C)OC(=O)*

For orientation: IC50 means the concentration at which inhibition is half-maximal. Broadly, the Ki is a dissociation constant, usually derived from enzyme kinetics or from competition with a known ligand. One may read the EC50 as the concentration giving half of the maximal effect.

Consider `O=C(CCl)Nc1sc(-c2ccccc2)cc1C(=O)NC1CC1`, for which the IC50 in test [1] was found to be 2360 nM. `CC(C)(C)OC(=O)NCC(=O)N[C@@H](Cc1ccccc1)C(=O)N[C@H](C=O)Cc1c[nH]cn1` (Boc-Gly-Phe-His-aldehyde): the IC50 in test [2] is 6490 nM. Regarding `CC(C)C[C@H](NC(=O)c1cc2ccccc2[nH]1)C(=O)N[C@@H](C[C@@H]1CCNC1=O)C(=O)c1nc2ccccc2s1`, the Ki was 4.1 nM in test [3] and 14.5 nM in test [4]. With `CC(C)C[C@H](NC(=O)OCc1ccccc1)C(=O)N[C@@H](C[C@@H]1CCNC1=O)C(=O)C(=O)NC1CC1`, the Ki in test [5] was 36 nM. The EC50 in the test with SARS-CoV-2 [6] worked out at 15100 nM. Consider `CC(C)C[C@H](NC(=O)OCc1ccccc1)C(=O)N[C@H](C=O)CC1CCNC1=O` (stereo partly drawn), for which, in the test on SARS-CoV-2 [7], the EC50 is 920 nM. In [8], this molecule showed an IC50 of 190 nM. Regarding `O=c1c2cccc([N+](=O)[O-])c2[se]n1Cc1ccccc1`, the IC50 in test [9] was found to be 2010 nM. In turn, `O=C(NCc1ccccn1)C(=O)[C@@H](Cc1ccccc1)NC(=O)[C@H]1CCC(=O)N1Cc1ccccc1` came in with an IC50 in test [10] of 3000 nM. Regarding `CC(C)C[C@H](NC(=O)OCC(C)(C)Sc1ccccc1)C(=O)N[C@@H](C[C@@H]1CCNC1=O)C(=O)C(=O)NC1CC1`, the EC50 with SARS-CoV-2 [11] was determined as 210 nM; in the test with SARS-CoV-2 [12], 50 nM. For the same molecule, the IC50 was 210 nM in test [10] and 40 nM in test [13]. Regarding `CC(C)C[C@H](NC(=O)OCC(C)(C)Sc1ccccc1)C(=O)N[C@@H](C[C@@H]1CCNC1=O)C(O)(C(=O)NC1CC1)S(=O)(=O)O` (stereo partly drawn), the EC50 in the test on SARS-CoV-2 [11] came out at 450 nM; with SARS-CoV-2 [12], 70 nM. For the same molecule, the IC50 worked out at 450 nM in test [10] and 180 nM in test [13]. On to `CC(C)C[C@H](NC(=O)OCc1ccccc1)C(=O)N[C@@H](CC1CCNC1=O)C(=O)C(=O)NC(C)C` (stereo partly drawn), for which the EC50 in the test on SARS-CoV-2 [7] turned out to be 1500 nM. The same molecule displayed an IC50 in test [14] of 5000 nM. For `CC(C)(C)C[C@H](NC(=O)C1CCCO1)C(=O)N[C@@H](C[C@@H]1CCNC1=O)C(=O)COC(=O)c1c(Cl)cccc1Cl` (stereo partly drawn), the Ki in test [15] was determined as 2.5 nM. For the molecule `CCOC(=O)/C=C/[C@H](C[C@@H]1CCNC1=O)NC(=O)[C@@H](CC(=O)[C@@H](NC(=O)c1cc(C)on1)C(C)C)Cc1ccc(F)cc1`, the IC50 in test [16] worked out at 68000 nM; in [18] it was 47000 nM. For the same molecule, the EC50 in the test on SARS-CoV-2 [17] turned out to be 1870 nM. As for `COc1cccc2[nH]c(C(=O)N[C@@H](CC(C)C)C(=O)N[C@@H](C[C@@H]3CCNC3=O)C(=O)c3nc4ccccc4s3)cc12`, the IC50 is 124 nM in test [16] and 3100 nM in [20]. In addition, the Ki in [19] stood at 50 nM. On to `COc1ccc(Cn2[se]c3ccccc3c2=O)cn1`, for which the IC50 in [21] was found to be 460 nM. Further, the EC50 in the test with SARS-CoV-2 [22] worked out at 3170 nM. In the case of `Cc1cccc2nc(CSC(=S)NCc3cccnc3)cn12`, the EC50 in the test on SARS-CoV-2 [17] is 1060 nM. For the same molecule, the IC50 in test [14] came to 20 nM. As for `CC(C)C[C@H](NC(=O)[C@@H](NC(=O)OCc1ccccc1)C(C)C)C(=O)N[C@@H](C[C@@H]1CCNC1=O)C(=O)c1nc2ccccc2s1`, the Ki in [3] was found to be 4.1 nM. Turning to `CN(C)C(=O)COc1ccc(-c2cccc3[nH]ncc23)cc1C=O`, the Ki in test [23] came out at 37 nM. Besides, the EC50 with SARS-CoV-2 [24] was found to be 2500 nM. In [16], `CSCC[C@@H](C=O)NC(=O)[C@H](CC(C)C)NC(=O)[C@H](CC(C)C)NC(C)=O` (Ac-Leu-Leu-Met-aldehyde) came in with an IC50 of 970 nM. In addition, the EC50 in the test with SARS-CoV-2 [25] amounted to 970 nM. `CCCCCCCC(=O)NCC(=O)N[C@@H](Cc1ccccc1)C(=O)N[C@H](C=O)Cc1c[nH]cn1` (Octanoyl-Gly-Phe-His-aldehyde): in test [2], the IC50 was found to be 2370 nM. On to `CCOC(=O)/C=C/[C@H](C[C@@H]1CCNC1=O)NC(=O)[C@H](CC#N)n1cccc(NC(=O)c2cc(C)on2)c1=O`, for which the IC50 in test [18] turned out to be 101000 nM.
